Assays:
[1] = test system: liver lysosomal (enzyme) extract; experiment: Digestion assay with rat liver lysosomal extract; type: biochemical; details: for Velocity, Sample / Velocity, Normalized: Table 3; for Velocity, Sample: FCitFP linker with various R5; for rate and time to completion of digestion, proline at A1 changed to alanine: 33 vs 30, 39 vs 23; for velocity of digestion, addition of phenylalanine: 54 vs 57, 56 vs 59
Protocol: Various amino acid combinations, tetrapeptides, were used to link various first moieties (R^5) and an AENA report group second compound (R^6) to form assay substrates (substrates). Cleavage rate of the peptides were evaluated by analysis of digestion of the substrates in the presence of rat lysosomal extract.
Reporting groups were coupled to the C-terminus of the peptide substrates as described above for UV-vis monitoring to explore the influence of amino acid sequence on kinetics of peptide degradation by HPLC. N-(2-aminoethyl)-4-nitroaniline (AENA) or N-(aminoethyl)-5-napthylamine-1-sulfonic acid (EDANS) were used as reporting groups for HPLC monitoring as neither absorptivity nor lambda maximum were affected for either after cleavage from the peptide. The N-terminus of each peptide substrate was modified with either methoxy polyethylene glycol (PEG12) or N-acetyl galactosamine (NAG(OR)3) (FIG. 1).
Proteolytic digestion experiments were carried out at a fixed substrate concentration (0.51 μmol) using liver lysosomal (enzyme) extract (0.45 μg/μL) in a 25 mM MES solution buffered to pH 5 containing 1% CHAPS and 1.8 mM DTT incubated at 37° C. Enzyme extract was activated in the presence of DTT for 15 minutes at 37° C. prior to addition of AENA labeled peptide substrates. At various time points, up to 26 h, 20 μL aliquots were removed and acidified to a pH of 3 with TFA. Analysis of fractions was performed using HPLC with a Aquasil C18 reverse-phase column (250×4.6, Thermofisher, Waltham, Mass.), monitored at 390 nm and 335 nm for AENA and EDANS respectively. Elution was performed with a gradient of acetonitrile and water buffered with 0.1% formic acid. Generation of unmodified reporter molecule was measured. To minimize freeze thaw cycles the lysosomal extract was dispensed into multiple aliquots prior to storage at −80° C. A new aliquot was employed for each study and used immediately upon thawing. Lysosomal extract was sourced from female Hans Wistar rats by differential density gradient centrifugation (Graham et al. 2000). Protein concentration of lysosomal extract was determined by standard BCA protein assay protocols. […]
Rate (also called velocity of degradation or velocity) was extrapolated during early linear turnover (Table 2). As used herein, rate is defined as the linear rate of reporting group generation at less than 50% completion (digestion rate was assumed to be linear at less than 50% completion). For substrates in which cleavage deviated from consecutive first order kinetics, the percent of reporting group liberated at the endpoint of digestion was used as a metric for comparison.

Factor VII = experiment: Serum Factor VII activity after DPC-mediated siRNA delivery in mice; type: in vivo; details: for Relative F VII activity: polymer-siRNA conjugate modified with the PEG-peptide agent and CDM-NAG, 1 mg/kg polymer, 0.25 mg/kg siRNA, day 5; for effectiveness as modifying agent in DPC-mediated siRNA delivery: Factor VII knockdown
Protocol: PEG tetrapeptide modifying agents were synthesized by using a PEG group at R^5 and an activated ester at R^7 (formula V). Membrane active polyamines (see below) were modified with Factor VII siRNA, CDM-NAG and the indicated tetrapeptide (45b, 46) or tripeptide control (47) modifying agents as previously described (U.S. Pat. Nos. 8,137,695 and 8,426,554) to form a dynamic polyconjugate delivery polymer. 1 mg/kg polymer conjugated to 0.25 mg/kg siRNA was then injected into mice. At day 5, samples were collected and assayed for Factor VII. Knockdown of Factor VII requires cleavage of the modifying agent from the polyamine at a rate similar to the previously described CDM masking agents and dipeptide-PABC masking agents. […] For dynamic polyconjugate delivery polymers modified with PEG12 functionalized tetrapeptides, the order of increasing knockdown in vivo (45b>46>47) correlated with in vitro kinetic results. Validation of the in vitro model for kinetic evaluation was shown by the results obtained in animal studies.
Polyacrylate EAB in 5 mM pH 8.0 HEPES buffer was modified 1.5 wt % with a N-hydroxysuccinimidyl activated PEG4 azide (Azido-dPEG4-NHS ester from Quanta Biodesign) to provide azide groups for subsequent attachment of siRNA. The azide-modified polymer was then diluted to 5 mg/mL in 60 mg/mL HEPES base. To this solution was added 15 mg/mL (3 wt equivalents) of the indicated protease-cleavable PEG modifying reagents (the described herein tetrapeptide agents or PEG12-FCit-PABC-PNP (8426554) to modify 40-50% of available amine groups. After 1 h, DBCO-modified rodent factor VII siRNA (0.25 wt eq relative to polymer) was added to polymer solution. After incubation overnight, conjugates were further modified by addition of molar excess relative to available amine groups of an N-acetylgalactosamine derivative CDM-NAG, NAG-A^4-A^3-A^2-A^1-NHS or NAG-ACit-PABC-PNP (U.S. Pat. No. 8,426,554, Rozema et al. 2015, Carlson et al. 2015), and incubated for 30 min to reversibly modify remaining polymer EAB amines.
Male Wistar Han rats and female ICR mice, 6 to 8 weeks old, were obtained from Harlan Sprague-Dawley, (Indianapolis, Ind.). Animals were handled in accordance with animal used protocols approved by the Animal Care and Use Committee at Arrowhead Madison Inc. Rodents were maintained on a 12 hours light/dark cycle with free access to water and food (Harlan Teklad Rodent Diet, Harlan, Madison, Wis.). Animals were injected with 1 mg/kg polymer conjugated to 0.25 mg/kg siRNA. Samples were collected 5 days post injection.
FVII activity in serum was measured with a chromogenic method using a test kit (BIOPHEN VII, Aniara, Mason, Ohio) following manufacturer's recommendations. Absorbance of colorimetric development was measured using a Tecan Safire-2 microplate reader at 405 nm.

[2] = Table 4, dipeptide EDANS C-terminal modified substrates
[3] = Table 4, dipeptide EDANS substrates, normalized with compound 60
[4] = AENA substrates, linear rate of reporter generation at <50% completion, pH 5, 37° C.
[5] = AENA substrates, normalized with compound 60 velocity (average 123.8 nmol/h)

Substance	Sample Velocity [1, 2]	Normalized Velocity [1, 3]	Sample Velocity [1, 4]	Normalized Velocity [1, 5]	also measured
H2N-NP-PEG4-Glu(EDANS)-NH-(CH2)2-OH [Compound 52]	156.5 nmol/h	151.9 nmol/h			
H2N-FP-PEG4-Glu(EDANS)-NH-(CH2)2-OH [Compound 48]	448.5 nmol/h	383.0 nmol/h			
H2N-GP-PEG4-Glu(EDANS)-NH-(CH2)2-OH [Compound 58]	14.4 nmol/h	13.9 nmol/h			
NAG(OH)3-FCitFP-AENA [Compound 22b]					Velocity, Sample [1]: 223.7 nmol/h; Velocity, Normalized ([1]; normalized with compound 60): 201.0 nmol/h
H2N-L-PEG4-Glu(EDANS)-NH-(CH2)2-OH [Compound 57]	58.3 nmol/h	53.3 nmol/h			
NAG(OH)3-FCitAA- AENA [Compound 33]					rate and time to completion of digestion, proline at A1 changed to alanine [1]: dramatic reduction in rate and time to completion of digestion; % Released at Endpoint (21 hr) [1]: 68.5%
PEG12-FNFP- AENA [Compound 32b]			42.0 nmol/h	38.6 nmol/h	% Released at Endpoint ([1]; endpoint at 26 hours): ***99.3%
H2N-F(Nme)A-Glu(EDANS)-NH-(CH2)2-OH [Compound 51]	177.6 nmol/h	162.6 nmol/h			
H2N-SP-PEG4-Glu(EDANS)-NH-(CH2)2-OH [Compound 53]	145.0 nmol/h	140.7 nmol/h			
H2N-VP-PEG4-Glu(EDANS)-NH-(CH2)2-OH [Compound 50]	213.5 nmol/h	195.5 nmol/h			
NAG(OAc)3-ACA- AENA [Compound 43]					% Released at Endpoint (21 hr) [1]: 1.1%
PEG12-FKFL- AENA [Compound 25b]			117.0 nmol/h	117.4 nmol/h	% Released at Endpoint ([1]; endpoint at 24 hours): **99.8%
H2N-FA-PEG4-Glu(EDANS)-NH-(CH2)2-OH [Compound 56]	61.3 nmol/h	56.1 nmol/h			velocity of digestion, addition of phenylalanine [1]: substantial increase in the velocity of digestion
PEG12-FKFP- AENA [Compound 24b]			134.8 nmol/h	123.9 nmol/h	velocity, proline vs leucine at A1 ([1]; 23 vs 27, 24b vs 25b): small increase in velocity; % Released at Endpoint ([1]; endpoint at 26 hours): ***98.9%
NAG(OAc)3-VCitFP- AENA [Compound 28]			84.3 nmol/h	75.8 nmol/h	% Released at Endpoint ([1]; endpoint at 23 hours): *99.4%
NAG(OAc)3-FCitFA- AENA [Compound 39]					rate and time to completion of digestion, proline at A1 changed to alanine [1]: dramatic reduction in rate and time to completion of digestion; % Released at Endpoint (21 hr) [1]: 40.5%
PEG-CitAP-OSu [Compound 47]					Relative F VII activity (Factor VII): 97 ± 34

Substance	Sample Velocity [1, 2]	Normalized Velocity [1, 3]	Sample Velocity [1, 4]	Normalized Velocity [1, 5]	also measured
NAG(OAc)3-ACitAA- AENA [Compound 35]					% Released at Endpoint (21 hr) [1]: 49.8%
NAG(OAc)3-AAA- AENA [Compound 41]			1.6 nmol/h	1.6 nmol/h	% Released at Endpoint (21 hr) [1]: 8.2%
NAG(OAc)3-CitAAA- AENA [Compound 36]					% Released at Endpoint ([1]; endpoint at 24 hours): **47.7%
NAG(OAc)3-FCitVP- AENA [Compound 26]			119.5 nmol/h	102.5 nmol/h	% Released at Endpoint (21 hr) [1]: 97.8%
H2N-FL-PEG4-Glu(EDANS)-NH-(CH2)2-OH [Compound 54]	155.0 nmol/h	132.4 nmol/h			velocity of digestion, addition of phenylalanine [1]: substantial increase in the velocity of digestion
PEG-FCitAP-OSu [Compound 45b]					effectiveness as modifying agent in DPC-mediated siRNA delivery (Factor VII): effective modifying agents; Relative F VII activity (Factor VII): 40 ± 06
PEG-ACitAP-OSu [Compound 46]					effectiveness as modifying agent in DPC-mediated siRNA delivery (Factor VII): effective modifying agents; Relative F VII activity (Factor VII): 66 ± 28
PEG12-GFLG- AENA [Compound 38]			10.0 nmol/h	9.7 nmol/h	% Released at Endpoint ([1]; endpoint at 24 hours): **47.8%
NAG(OAc)3-FCitFP-AENA [Compound 22a]					rate of proteolytic digestion, influence of R5 ([1]; 22a vs 23, 22a vs 22b): essentially equivalent in terms of rate of proteolytic digestion; Velocity, Sample [1]: 244.9 nmol/h; Velocity, Normalized ([1]; normalized with compound 60): 210.5 nmol/h
PEG12-FCitF(Nme)A- AENA [Compound 29]			62.5 nmol/h	62.6 nmol/h	rate and completion of digestion, N-methylation at A1 ([1]; 29 vs 39): faster rate and faster completion of digestion; % Released at Endpoint ([1]; endpoint at 23 hours): *97.3%
NAG(OAc)3-CitAA- AENA [Compound 40]			3.7 nmol/h	3.9 nmol/h	% Released at Endpoint (21 hr) [1]: 15.6%
H2N-AP-PEG4-Glu(EDANS)-NH-(CH2)2-OH [Compound 55]	125.7 nmol/h	115.1 nmol/h			
PEG12-FDFP- AENA [Compound 34b]			18.0 nmol/h	16.6 nmol/h	% Released at Endpoint ([1]; endpoint at 26 hours): ***66.5%
PEG12-ACitFP- AENA [Compound 31]			49.5 nmol/h	49.6 nmol/h	% Released at Endpoint ([1]; endpoint at 23 hours): *98.9%
H2N-A-PEG4-Glu(EDANS)-NH-(CH2)2-OH [Compound 59]	7.9 nmol/h	7.2 nmol/h			
H2N-LP-PEG4-Glu(EDANS)-NH-(CH2)2-OH [Compound 49]	349.1 nmol/h	338.7 nmol/h			
PEG12-FCitFL- AENA [Compound 27]			94.5 nmol/h	94.7 nmol/h	% Released at Endpoint ([1]; endpoint at 24 hours): **99.7%
